Measurements published in patent publication US11178869B2, “Microbiocidal quinoline (thio)carboxamide derivatives” (priority 2017, dated 2021).
Where two headings read alike, the source gives them in different places.

What was measured:
[1] = tested on: Botryotinia fuckeliana (Botrytis cinerea); assay: Botryotinia fuckeliana (Botrytis cinerea) / liquid culture (gray mould); type: cell-based; conditions: 72 h, read-out: disease control
[2] = tested on: Fusarium culmorum; assay: microbe, parasite or virus in culture; type: cell-based; conditions: read-out: disease control
[3] = tested on: Glomerella lagenarium (Colletotrichum lagenarium); assay: Glomerella lagenarium (Colletotrichum lagenarium) / liquid culture (anthracnose); type: cell-based; conditions: Colletotrichum orbiculare, read-out: disease control
[4] = tested on: Monographella nivalis (Microdochium nivale); assay: Monographella nivalis (Microdochium nivale) / liquid culture (foot rot cereals); type: cell-based; conditions: read-out: disease control
[5] = tested on: Magnaporthe grisea (Pyricularia oryzae); assay: microbe, parasite or virus in culture; type: cell-based; conditions: read-out: control of Magnaporthe grisea
[6] = tested on: Fusarium culmorum; assay: whole plant or invertebrate; type: in vivo, Fusarium culmorum on wheat spikelets cv. Monsun; conditions: in Triticum aestivum, 144 h, read-out: control of Fusarium culmorum
[7] = tested on: Sclerotinia sclerotiorum; assay: Sclerotinia sclerotiorum / liquid culture (cottony rot); conditions: read-out: control of Sclerotinia sclerotiorum
Method: Sclerotinia sclerotiorum/Liquid Culture (Cottony Rot)
Mycelia fragments of a newly grown liquid culture of the fungus are directly mixed into nutrient broth (Vogels broth). After placing a (DMSO) solution of test compound into a microtiter plate (96-well format) the nutrient broth containing the fungal material is added. The test plates are incubated at 24° C. and the inhibition of growth is determined photometrically 3-4 days after application.

[8] = tested on: Gaeumannomyces graminis; assay: Gaeumannomyces graminis / liquid culture (take-all of cereals); type: cell-based; conditions: compared to untreated control, 4-5 days after application
[9] = 200 ppm, compared to untreated control, growth inhibition photometrically 3-4 days after application
[10] = 200 ppm, compared to untreated control, growth inhibition photometrically 4-5 days after application

Row | Compound | inhibition of growth at 200 ppm [1, 9] [%] | inhibition of growth at 200 ppm [2] [%] | inhibition of growth at 200 ppm [3, 9] [%] | inhibition of growth at 200 ppm [4, 10] [%] | inhibition of growth at 20 ppm [5] [%] | pest or weed control at 200 ppm [6] [%] | inhibition of growth at 20 ppm [7] [%] | inhibition of growth at 20 ppm [8] [%] | inhibition of growth at 200 ppm [1] [%] | inhibition of growth at 200 ppm [3] [%] | inhibition of growth at 200 ppm [4] [%] | melting point [°C]
1 | CC(C)[C@@](C)(C#Cc1ccccc1)NC(=O)c1cnc2c(F)cccc2c1 (single isomer, unassigned) [Compound G-7] | ≥ 80 | ≥ 80 | ≥ 80 | ≥ 80 | ≥ 80 | ≥ 80 | ≥ 80 |  |  |  |  | 
2 | CC(C)[C@](C)(C#Cc1ccccc1)NC(=O)c1cnc2c(F)cccc2c1 (single isomer, unassigned) [Compound G-8] | ≥ 80 | ≥ 80 | ≥ 80 | ≥ 80 | ≥ 80 |  |  | ≥ 80 |  |  |  | 
3 | CC(CC#CC1CC1)(CC(F)(F)F)NC(=O)c1cnc2c(F)cccc2c1 (stereo not shown) [Compound E-1, N-[4-cyclopropyl-1-methyl-1-(2,2,2-trifluoroethyl)but-3-ynyl]-8-fluoro-quinoline-3-carboxamide] |  | ≥ 80 |  |  |  |  |  |  | ≥ 80 | ≥ 80 | ≥ 80 | 110 to 112
4 | CC(C)C(C#Cc1ccccc1)NC(=O)c1cnc2c(F)cccc2c1 (stereo not shown) [Compound F-3, 8-fluoro-N-(1-isopropyl-3-phenyl-prop-2-ynyl)quinoline-3-carboxamide] | ≥ 80 | ≥ 80 | ≥ 80 | ≥ 80 | ≥ 80 | ≥ 80 |  |  |  |  |  | 156 to 158
5 | O=C(NC(C#Cc1ccccc1)CCC(F)(F)F)c1cnc2c(F)cccc2c1 (stereo not shown) [Compound F-4, 8-fluoro-N-[4,4,4-trifluoro-1-(2-phenylethynyl)butyl]quinoline-3-carboxamide] | ≥ 80 | ≥ 80 |  | ≥ 80 | ≥ 80 |  |  | ≥ 80 |  |  |  | 
6 | CCC(C#Cc1ccccc1)(CC)NC(=O)c1cnc2c(F)cccc2c1 [Compound F-6, N-(1,1-diethyl-3-phenyl-prop-2-ynyl)-8-fluoro-quinoline-3-carboxamide] | ≥ 80 | ≥ 80 | ≥ 80 | ≥ 80 |  |  |  | ≥ 80 |  |  |  | 
7 | CC(C)C(C)(C#Cc1ccccc1F)NC(=O)c1cnc2c(F)cccc2c1 (stereo not shown) [Compound F-12, 8-fluoro-N-[3-(2-fluorophenyl)-1-isopropyl-1-methyl-prop-2-ynyl]quinoline-3-carboxamide] | ≥ 80 | ≥ 80 | ≥ 80 | ≥ 80 | ≥ 80 | ≥ 80 | ≥ 80 | ≥ 80 |  |  |  | 
8 | Cc1ccccc1C#CC(C)(NC(=O)c1cnc2c(F)cccc2c1)C(C)C (stereo not shown) [Compound F-13, 8-fluoro-N-[1-isopropyl-1-methyl-3-(o-tolyl)prop-2-ynyl]quinoline-3-carboxamide] | ≥ 80 | ≥ 80 | ≥ 80 | ≥ 80 | ≥ 80 |  |  | ≥ 80 |  |  |  | 138 to 141
9 | CCC(C)(C#Cc1ccccc1C)NC(=O)c1cnc2c(F)cccc2c1 (stereo not shown) [Compound F-15, N-[1-ethyl-1-methyl-3-(o-tolyl)prop-2-ynyl]-8-fluoro-quinoline-3-carboxamide] | ≥ 80 | ≥ 80 | ≥ 80 | ≥ 80 | ≥ 80 |  | ≥ 80 |  |  |  |  | 143 to 146
10 | COc1ccc(Cl)cc1C#CC(C)(C)NC(=O)c1cnc2c(F)cccc2c1 [Compound F-23, N-[3-(5-chloro-2-methoxy-phenyl)-1,1-dimethyl-prop-2-ynyl]-8-fluoro-quinoline-3-carboxamide] | ≥ 80 | ≥ 80 | ≥ 80 | ≥ 80 |  |  |  | ≥ 80 |  |  |  | 
11 | Cc1ccc(F)cc1C#CC(C)(C)NC(=O)c1cnc2c(F)cccc2c1 [Compound F-24, 8-fluoro-N-[3-(5-fluoro-2-methyl-phenyl)-1,1-dimethyl-prop-2-ynyl]quinoline-3-carboxamide] | ≥ 80 | ≥ 80 | ≥ 80 | ≥ 80 |  | ≥ 80 |  | ≥ 80 |  |  |  | 
12 | CC(C)(C#Cc1ccc(F)cc1F)NC(=O)c1cnc2c(F)cccc2c1 [Compound F-25, N-[3-(2,4-difluorophenyl)-1,1-dimethyl-prop-2-ynyl]-8-fluoro-quinoline-3-carboxamide] | ≥ 80 | ≥ 80 | ≥ 80 | ≥ 80 |  | ≥ 80 |  | ≥ 80 |  |  |  | 
13 | CC(C)C(C)(C#Cc1ccccc1)NC(=O)c1cnc2c(F)cccc2c1 (stereo not shown) [Compound F-46, 8-fluoro-N-(1-isopropyl-1-methyl-3-phenyl-prop-2-ynyl)quinoline-3-carboxamide] | ≥ 80 | ≥ 80 | ≥ 80 | ≥ 80 | ≥ 80 | ≥ 80 |  | ≥ 80 |  |  |  | 118 to 122
14 | Cc1ccccc1C#CC(C)(C)NC(=O)c1cnc2c(F)cccc2c1 [Compound F-47, N-[1,1-dimethyl-3-(o-tolyl)prop-2-ynyl]-8-fluoro-quinoline-3-carboxamide] | ≥ 80 | ≥ 80 | ≥ 80 | ≥ 80 | ≥ 80 | ≥ 80 |  | ≥ 80 |  |  |  | 156 to 160
15 | CC(C)(C#Cc1cccc(C(F)(F)F)c1)NC(=O)c1cnc2c(F)cccc2c1 [Compound F-48, N-[1,1-dimethyl-3-[3-(trifluoromethyl)phenyl]prop-2-ynyl]-8-fluoro-quinoline-3-carboxamide] | ≥ 80 | ≥ 80 | ≥ 80 | ≥ 80 | ≥ 80 |  |  | ≥ 80 |  |  |  | 181 to 184
16 | CC(C)(C#Cc1ccccc1)NC(=O)c1cnc2ccccc2c1 [Compound F-49, N-(1,1-dimethyl-3-phenyl-prop-2-ynyl)quinoline-3-carboxamide] | ≥ 80 | ≥ 80 | ≥ 80 | ≥ 80 | ≥ 80 | ≥ 80 |  | ≥ 80 |  |  |  | 136 to 141
17 | Cc1nc2c(F)cccc2cc1C(=O)NC(C)(C)C#Cc1ccccc1 [Compound F-50, N-(1,1-dimethyl-3-phenyl-prop-2-ynyl)-8-fluoro-2-methyl-quinoline-3-carboxamide] | ≥ 80 | ≥ 80 | ≥ 80 |  | ≥ 80 |  | ≥ 80 |  |  |  |  | 118 to 123
18 | Cc1c(C(=O)NC(C)(C)C#Cc2ccccc2)cnc2c(F)cccc12 [Compound F-51, N-(1,1-dimethyl-3-phenyl-prop-2-ynyl)-8-fluoro-4-methyl-quinoline-3-carboxamide] | ≥ 80 | ≥ 80 | ≥ 80 | ≥ 80 | ≥ 80 |  | ≥ 80 | ≥ 80 |  |  |  | 
19 | C#CC(C)(C)NC(=O)c1cnc2c(F)cccc2c1 [Compound F-54, N-(1,1-dimethylprop-2-ynyl)-8-fluoro-quinoline-3-carboxamide] |  | ≥ 80 |  | ≥ 80 |  |  |  |  |  |  |  | 148 to 150
20 | CC(C)C[C@H](C#Cc1ccccc1)NC(=O)c1cnc2c(F)cccc2c1 [Compound G-3, 8-fluoro-N-[(1R)-3-methyl-1-(2-phenylethynyl)butyl]quinoline-3-carboxamide] | ≥ 80 | ≥ 80 | ≥ 80 | ≥ 80 | ≥ 80 |  |  | ≥ 80 |  |  |  | 
21 | CC(C)C[C@](C)(C#Cc1ccccc1)NC(=O)c1cnc2c(F)cccc2c1 [Compound G-6, N-[(1R)-1,3-dimethyl-1-(2-phenylethynyl)butyl]-8-fluoro-quinoline-3-carboxamide] | ≥ 80 | ≥ 80 |  | ≥ 80 | ≥ 80 |  |  | ≥ 80 |  |  |  | 128 to 130
